The values below come from patent US6884792B2, “Bretylium compositions and kits and their use in preventing and treating cardiovascular conditions” (priority 1999, dated 2005).

Counter-ions that a name gives are not always drawn. Like-named read-outs stand apart in the source and are kept apart here.

For series [1] the following is noted: water/octanol, relative to chloride; cited from earlier work.
Series [2] deals with dogs. Nature of the series: VFT 1-5 hours after injection of bretylium tosylate and/or β-receptor blockers. The series is classed as in vivo, dog.
Description: The increase in efficacy of the bretylium cation afforded by administering the bretylium cation in combination with a β-receptor blocker was tested by administering via injection bretylium tosylate alone, various β-receptor blockers alone, and various combinations of bretylium tosylate and β-receptor blockers to dogs, and then measuring the ventricular fibrillation threshold of the dogs 1-5 hours after drug administration.
A further series relates to Mongrel dogs. Nature of the series: Oral bretylium-tosylate/facilitating-anion combinations: VFT and EVRP. The series is classed as in vivo. The settings on record: dog; 50 milliamps. As for the experimental part: A catheter electrode was passed under fluoroscopic observation via the jugular vein into the apex of the right ventricle and screwed into place in the myocardium of the right ventricle. […] After the control VFT and EVRP were measured, the compositions were orally administered in capsule form via a stomach tube. […] The VFT and EVRP were measured at various times following this administration. […] See also FIGS. 8-10.

For another series, the system named is dog. The settings on record: orally administered to a dog.
Series [3] deals with mongrel dog. As for the experimental part:
At time zero, a 5 milliamp stimulus was applied and a ventricular fibrillation threshold (VFT) was established.
At 1 hour and 20 minutes, the dog was given a 50 mg/kg dose of bretylium lauryl sulfate salt.
At three hours and twenty minutes, the dog's left anterior coronary artery was ligated to attempt to induce ventricular fibrillation by coronary occlusion.
Next, at three hours and thirty-seven minutes, 50 milliamps (the maximum current) was applied in an attempt to induce ventricular fibrillation and/or atrial fibrillation.

For series [4], the system named is mongrel dog. Nature of the series: Electrically induced atrial fibrillation, intravenous administration. The settings on record: single intravenous dose, 15 mg bretylium tosylate per kg. The series is classed as in vivo.
Description: This electrode catheter delivered stimulating shocks consisting of a train of square wave pulses of 1 msec duration at 60 Hz. Atrial fibrillation was induced at a current of 6 milliamps.
Defibrillation was first attempted using a single dose of bretylium tosylate (Arnar-Stone, McGaw Park, Ill.) administered intravenously (the dose corresponded to 15 mg of bretylium tosylate per kg of the recipient).
Subsequently, a composition containing bretylium tosylate and aspirin was administered intravenously into the jugular vein. This composition was prepared using a commercially available tablet containing aspirin. The aspirin tablet was dissolved in warm water and filtered through a fine surgical gauze pad (to remove the bulk of the binder in the tablet). The resulting aspirin filtrate was then combined with an approximately equimolar amount of bretylium tosylate dissolved in 5% dextrose in water. Approximately 20 ml of this aqueous solution was injected into jugular vein of the atrially fibrillating dog (this dose corresponded to roughly 15 mg of bretylium tosylate per kg of the recipient and 6.5 mg of aspirin per Kg recipient).
The procedure of series [5]: To measure the partition coefficient for a facilitating anion in the presence of a bretylium compound, an acidified aqueous solution of the bretylium compound with a non-facilitating anion (e.g., tosylate, bromide or chloride) is first prepared. Sodium bicarbonate and a salt comprising the facilitating anion to be tested are then added to the aqueous solution. The salt comprising the facilitating anion should be added in an amount sufficient to provide about a 1:1 molar ratio of the facilitating anion to the bretylium cation. The sodium bicarbonate is provided in an amount sufficient to produce a preselected pH value. An equal volume of n-octanol is then added to this solution. The solution is shaken. The mixture is centrifuged to separate an octanol-rich layer and an aqueous-rich layer, and the distribution ratio of the bretylium cation between the octanol-rich phase and the aqueous-rich phase (that is, the partition coefficient) may be measured. This analytical approach is believed to provide a suitable model for evaluating the bioavailability of the bretylium cation when utilized with a facilitating anion.
Several formulations of the present invention were tested using an n-octanol/aqueous buffer system to measure the partition coefficients for the bretylium cation in the presence of the facilitating anions of those formulations. An acidified aqueous solution of bretylium tosylate was first prepared. Sodium bicarbonate and a salt comprising the facilitating anion to be tested was then added to the aqueous solution. The salt comprising the facilitating anion was added in an amount sufficient to provide a 1:1 molar ratio of the facilitating anion to the bretylium cation. The sodium bicarbonate was provided in an amount sufficient to produce one of 4 preselected pH values. An equal volume of n-octanol was then added to this solution and the solution was shaken. The mixture was centrifuged to separate an octanol layer and an aqueous layer, and the distribution ratio of the bretylium cation between the octanol-rich phase and the aqueous-rich phase (that is, the partition coefficient) was measured. This analytical approach provides a suitable model for evaluating the bioavailability of the bretylium cation in the compositions tested.
The aqueous bretylium tosylate solutions used in the procedure were prepared in the following manner. An amount of one of the buffer solutions described below (3.0 ml when the most acidic buffer solution was used, and 4.0 ml when the other 3 buffer solutions were used) was transferred to a beaker or an Erlenmeyer flask by pipette. To the buffer solution was added 50 mg of bretylium tosylate per ml of buffer solution and an equimolar amount of the sodium salt of the facilitating anion. For example, where the facilitating anion tested was di(2-ethylhexyl)sulfosuccinate, 54 mg of sodium di(2-ethylhexyl)sulfosuccinate was added per ml of buffer solution. […] Test solutions comprising other facilitating agents were prepared in a similar manner.
Each of the pharmaceutical compositions was tested using each of the following sodium bicarbonate buffer systems:
The first buffer solution was prepared by dissolving 1.0 g of sodium bicarbonate in 100 ml of 0.95M HCl. A pH meter equipped with a conventional glass electrode and a calomel reference electrode was used to measure the nominal pH of this solution and the other 3 buffer solutions.
The second buffer solution was prepared by dissolving 7.5 g of sodium bicarbonate in 100 ml of 0.95M HCl.
The third buffer solution was prepared by dissolving 8.0 g of sodium bicarbonate in 100 ml of 0.95M HCl.

Series [6] concerns dogs.
[7] abbreviates: intravenous, about 20 mg bretylium tosylate per kg.

In the case of `Cc1ccc(S(=O)(=O)O)cc1` [tosylate anion, tosylate], in series [1], the “organic/aqueous phase distribution constant (K)” value is listed as “about 320”.

For `COCCc1ccc(OCC(O)CNC(C)C)cc1` (centres unmarked) [metoprolol], in the series on dogs [2] (per kg: 0.05 mg metoprolol, no bretylium, 1-5 hours), the “Mean % Increase in VFT” value is given as 96% ± 70%.

Take `CCCCCCCCCCCCOS(=O)(=O)[O-].CC[N+](C)(C)Cc1ccccc1Br` [bretylium lauryl sulfate salt, bretylium lauryl sulfate]: the “ventricular or atrial fibrillation despite maximum electrical stimulation” value in the series with Mongrel dogs is listed as “did not occur”. The antifibrillatory activity result in the series on dog is “active antifibrilant”. In the series on mongrel dog [3] (FIG. 8 legend), the “rhythm 46 minutes after administration despite attempts to reinitiate atrial fibrillation with electrical stimulation” value is reported as “maintained a normal sinus rhythm”. For the same molecule, the “fibrillation induced by electrical stimulation at 50 milliamps (maximum current)” value in the series on mongrel dog [3] (at 3 h 37 min of experiment) is listed as “No fibrillation (atrial or ventricular) could be induced”. Also, in the series on mongrel dog [3] (dog, in vivo, 50 mg/kg), the “time after dose at which atrial fibrillation ceased entirely” value is 19 min and the “time after dose to periods of normal sinus rhythm” value is “Approximately 18 minutes”. In the series with mongrel dog [3] (following two minutes after release at 3 h 35 min), the “ventricular fibrillation after release of the coronary occlusion” value is “no ventricular fibrillation was observed”. In addition, the “ventricular fibrillation on ligation of left anterior coronary artery” value in the series on mongrel dog [3] (ligated at 3 h 20 min of experiment, 2 h after 50 mg/kg dose) was “No ventricular fibrillation was observed”.

Regarding `CC[N+](C)(C)Cc1ccccc1Br.Cc1ccc(S(=O)(=O)[O-])cc1` [bretylium tosylate, 2-bromobenzylethyldimethylammonium p-toluenesulfonate, reference compound], the “effect on atrial fibrillation” value in the series with mongrel dog [4] was “No effect”. The “PARTITION COEFFICIENT” value in series [5] (pH 0.8) was 0.33; in series [5] (pH 2.1), 0.48; in series [5] (pH 5.5), 0.45; in series [5] (pH 7.7), 0.49. Also, in the series on dogs [2] (per kg: 20 mg bretylium tosylate, no β-receptor blocker, 1-5 hours after administration), the “Mean % Increase in VFT” value is listed as 100-200% (no standard. Further, in the series with dogs [6] (setting [7]), the “time after administration at which a substantial increase in ventricular fibrillation threshold began” value lay in the range of 12 to 15 min. Also, in the series with dogs [6] (setting [7]), the “time after administration of peak increase in ventricular fibrillation threshold” value is reported as “About 3 hours”.

In the case of `CCCCC(CC)COC(=O)CC(C(=O)OCC(CC)CCCC)S(=O)(=O)O` (centres unmarked) [di(2-ethylhexyl)sulfosuccinate], the “PARTITION COEFFICIENT” value was found to be 4.16 in series [5] (pH 5.5), 4.94 in series [5] (pH 5.6), 5.03 in series [5] (pH 7) and 3.61 in series [5] (pH 7.7).

Consider `CC[N+](C)(C)Cc1ccccc1Br.O=C([O-])c1ccccc1O` [Bretylium Salicylate, bretylium salicylate], for which, in the series on Mongrel dogs, the “ventricular or atrial fibrillation despite maximum electrical stimulation” value was “did not occur”.

lauryl sulfate: the “PARTITION COEFFICIENT” value in series [5] (n-octanol/buffer, nominal pH 0.8, 1:1 molar facilitating anion:bretylium tosylate) was 1.91; in series [5] (n-octanol/buffer, nominal pH 2.2, 1:1 molar facilitating anion:bretylium tosylate) it was 3.54; in series [5] (n-octanol/buffer, nominal pH 5.5, 1:1 molar facilitating anion:bretylium tosylate) it was 3.71; in series [5] (n-octanol/buffer, nominal pH 7.0, 1:1 molar facilitating anion:bretylium tosylate), 4.01.

In the case of `COC(=O)CCc1ccc(OCC(O)CNC(C)C)cc1` (centres unmarked) [esmolol], the “Mean % Increase in VFT” value with dogs [2] (per kg: 25 to 300 μg esmolol, no bretylium, 1-5 hours) was “no significant increase”.

Turning to `CCCCC(CC)COP(=O)(O)OCC(CC)CCCC` (centres unmarked) [di(2-ethylhexyl)phosphate], the “PARTITION COEFFICIENT” value is 0.35 in series [5] (pH 0.8), 0.49 in series [5] (pH 2.2), 0.51 in series [5] (pH 5.5) and 2.33 in series [5] (pH 7.7).

`CC(C)NCC(O)COc1ccc(CC(N)=O)cc1` (centres unmarked) [atenolol]: the “Mean % Increase in VFT” value with dogs [2] (per kg: 0.05 mg atenolol, no bretylium, 1-5 hours) is given as 330% ± 210%.

As to `CC(C)NCC(O)COc1cccc2ccccc12` (centres unmarked) [propranolol], in the series on dogs [2] (per kg: 0.075 mg propranolol, no bretylium, 1-5 hours), the “Mean % Increase in VFT” value is given as 110% ± 40%. Moreover, the “increase in the ventricular fibrillation threshold” value in the series with dogs [6] (intravenous propranolol alone, 0.05 to 0.5 mg/kg) is 110%±40%.
